The values that follow come from patent US20170050980A1, “OXADIAZINE COMPOUNDS AND METHODS OF USE THEREOF” (FORUM Pharmaceuticals Inc., priority 2015, published 2017).

Structures are written as SMILES. pIC50: −log10 of the molar value. Some results are limits rather than exact numbers.

The subject of the assay is Aβ42. As to the kind of experiment: In vitro cell screening assay; quantification of Aβ (1-42) peptide by sandwich ELISA. As to conditions: Human neuroglioma H4 cells stably expressing human wild type APP751; compounds 0.003-10 μM, incubated overnight (16-18 h); Aβ42 in supernatant by sandwich ELISA; normalized to DMSO and DAPT; read-out: Aβ42 H4 Prot Fre IC50. The class given is cell-based. Here is the method:
Human neuroglioma H4 cells were transfected with a pcDNA3.1 plasmid expressing human wild type APP751 cDNA and a stable cell line was generated using G418 selection. Cells were plated at 15,000 cells/well in Costar 96-well plates and placed at 37° C. and 5% CO2. Six hours after plating, cells were washed three times with Pro293™ chemically defined medium, followed by addition of compounds (0.003-10 μM, final DMSO concentration of 0.33%). Plates were incubated overnight (16-18 h) and supernatant was removed for quantification of Aβ peptides by sandwich ELISA. Cytotoxicity was evaluated using Cell-Titer 96W AQueous One Solution Cell Proliferation Assay according to the manufacturer's protocol.
Aβ peptide levels were quantified by sandwich ELISA. 96-well plates were coated with C-terminal specific Aβ antibodies recognizing either Aβ37, Aβ38, Aβ40, Aβ42, Aβ43 or a N-terminal specific Aβ antibody to detect Aβ 1-x. Plates were then blocked overnight at 4° C. with 1% bovine serum albumin (BSA) in PBS-T. Plates were washed and 100 μl of cultured cell supernatant or synthetic Aβ peptide standards and a detection antibody (4G8-HRP) were applied to the blocked plate and incubated overnight at 4° C. The next day, wells were washed before the addition of detection substrate (TMB peroxidase). Plates were then read for absorbance at 450 nm on a Molecular Devices SpectraMax M5e Microplate Reader.
Compound-treated samples were normalized to samples treated with DMSO alone (no inhibition) and to samples treated with DAPT. IC50 values were calculated from values reported as percent of DMSO controls using nonlinear regression, based on a sigmoidal dose—response (variable slope) model. […] used for calculation.
The pIC50 is the IC50 on a negative log10 scale, so that one unit is a factor of ten. As to `COc1nc(C2=NOC(C)C(c3cn(C)c4ncc(Cl)cc34)N2)ccc1-n1cnc(C)c1` (single isomer, unassigned; (-)) [Example 54A, (−)-5-(5-chloro-1-methyl-1H-pyrrolo [2,3-b]pyridin-3-yl)-3-(6-methoxy-5-(4-methyl-1H-imidazol-1-yl)pyridin-2-yl)-6-methyl-5,6-dihydro-4H-1,2,4-oxadiazine], the pIC50 is 6.72. The same measure for `COc1nc(C2=NOC(C)C(c3cn(C)c4ncc(C(F)(F)F)cc34)N2)ccc1-n1cnc(C)c1` (single isomer, unassigned; (+)) [44B or 45B, (+)-3-(6-methoxy-5-(4-methyl-1H-imidazol-1-yl)pyridin-2-yl)-6-methyl-5-(1-methyl-5-(trifluoromethyl)-1H-pyrrolo[2,3-b]pyridin-3-yl)-5,6-dihydro-4H-1,2,4-oxadiazine]: 8.09; for `COc1nc(C2=NOC(C)C(c3cn(C)c4ncc(Cl)cc34)N2)ccc1-n1cnc(C)c1` (single isomer, unassigned; (+)) [Example 54B, (+)-5-(5-chloro-1-methyl-1H-pyrrolo [2,3-b]pyridin-3-yl)-3-(6-methoxy-5-(4-methyl-1H-imidazol-1-yl)pyridin-2-yl)-6-methyl-5,6-dihydro-4H-1,2,4-oxadiazine]: 8.20; for `COc1nc(C2=NOCC(c3cn(C)c4ccc(C5CCOCC5)cc34)N2)ccc1-n1cnc(C)c1` (single isomer, unassigned; (-)) [Example 29A, (−)-3-(6-methoxy-5-(4-methyl-1H-imidazol-1-yl)pyridin-2-yl)-5-(1-methyl-5-(tetrahydro-2H-pyran-4-yl)-1H-indol-3-yl)-5,6-dihydro-4H-1,2,4-oxadiazine]: 6.18.

For `COc1nc(C2=NOC(C)C(c3cc4ccc(Cl)cc4o3)N2)ccc1-n1cnc(C)c1` (single isomer, unassigned) [Example 46A, 5-(6-chlorobenzofuran-2-yl)-3-(6-methoxy-5-(4-methyl-1H-imidazol-1-yl)pyridin-2-yl)-6-methyl-5,6-dihydro-4H-1,2,4-oxadiazine], the negative-log IC50 (pIC50) is 6.65. As for `COc1nc(C2=NOC(C3CC3)C(c3ccc(Cl)cc3)N2)ccc1-n1cnc(C)c1` (stereo not drawn) [Example 20B, (+)-cis-5-(4-chlorophenyl)-6-cyclopropyl-3-[6-methoxy-5-(4-methyl-1H-imidazol-1-yl)pyridin-2-yl]-5,6-dihydro-4H-1,2,4-oxadiazine], the pIC50 is 8.05. The same measure for `COc1nc(C2=NOC(C)C(c3cn(C)c4cc(F)c(F)cc34)N2)ccc1-n1cnc(C)c1` (single isomer, unassigned; (+)) [Example 39D, (+)-5-(5,6-difluoro-1-methyl-1H-indol-3-yl)-3-(6-methoxy-5-(4-methyl-1H-imidazol-1-yl)pyridin-2-yl)-6-methyl-5,6-dihydro-4H-1,2,4-oxadiazine]: 8.36. Next, `COc1nc(C2=NOC(C)C(c3ccc(Cl)c(F)c3)N2)ccc1-n1cnc(C)c1` (stereo not drawn) [40-IA or 40-IIA, (−)-(cis)-5-(4-chloro-3-fluorophenyl)-3-(6-methoxy-5-(4-methyl-1H-imidazol-1-yl)pyridin-2-yl)-6-methyl-5,6-dihydro-4H-1,2,4-oxadiazine]: 5.74; `COc1cc(C2=NOC(C)C(c3ccc(Cl)cc3)N2)ccc1-n1cnc(C)c1` (single isomer, unassigned; (-)) [Example 43A, (−)-5-(4-chlorophenyl)-3-(3-methoxy-4-(4-methyl-1H-imidazol-1-yl)phenyl)-6-methyl-5,6-dihydro-4H-1,2,4-oxadiazine]: < 5.52. The same measure for `COc1nc(C2=NOC(C)C(c3cn(C)c4cc(F)c(F)cc34)N2)ccc1-n1cnc(C)c1` (single isomer, unassigned; (-)) [Example 39C, (−)-5-(5,6-difluoro-1-methyl-1H-indol-3-yl)-3-(6-methoxy-5-(4-methyl-1H-imidazol-1-yl)pyridin-2-yl)-6-methyl-5,6-dihydro-4H-1,2,4-oxadiazine]: 6.14; for `COc1nc(C2=NOCC(c3c4n(c5ccccc35)CCOC4)N2)ccc1-n1cnc(C)c1` (single isomer, unassigned; (+)) [Example 30B, (+)-10-(3-(6-methoxy-5-(4-methyl-1H-imidazol-1-yl)pyridin-2-yl)-5,6-dihydro-4H-1,2,4-oxadiazin-5-yl)-3,4-dihydro-1H-[1,4]oxazino[4,3-a]indole]: 7.77; for `COc1nc(C2=NOC(C)C(c3cn(C)c4ncc(F)c(F)c34)N2)ccc1-n1cnc(C)c1` (single isomer, unassigned; (+)) [Example 51A, (+)-5-(4,5-difluoro-1-methyl-1H-pyrrolo [2,3-b]pyridin-3-yl)-3-(6-methoxy-5-(4-methyl-1H-imidazol-1-yl)pyridin-2-yl)-6-methyl-5,6-dihydro-4H-1,2,4-oxadiazine]: 7.93. As to `COc1nc(C2=NO[C@H](c3ccc(Cl)cc3)[C@H](C)N2)ccc1-n1cnc(C)c1` [Example 71A, (5S,6R)-6-(4-chlorophenyl)-3-(6-methoxy-5-(4-methyl-1H-imidazol-1-yl)pyridin-2-yl)-5-methyl-5,6-dihydro-4H-1,2,4-oxadiazine], the negative logarithm of the IC50 (pIC50) is 7.90. Next, `COc1nc(C2=NOC(C)(C)C(c3ccc(Cl)cc3)N2)ccc1-n1cnc(C)c1` (single isomer, unassigned; (-)) [Example 23A, (−)-5-(4-chlorophenyl)-3-[6-methoxy-5-(4-methyl-1H-imidazol-1-yl)pyridin-2-yl]-6,6-dimethyl-5,6-dihydro-4H-1,2,4-oxadiazine]: 5.94; `COc1nc(C2=NOC(C3CC3)C(c3cn(C)c4ncc(Cl)cc34)N2)ccc1-n1cnc(C)c1` (stereo not drawn) [57A or 58A, (+)-(cis)-5-(5-chloro-1-methyl-1H-pyrrolo[2,3-b]pyridin-3-yl)-6-cyclopropyl-3-(6-methoxy-5-(4-methyl-1H-imidazol-1-yl)pyridin-2-yl)-5,6-dihydro-4H-1,2,4-oxadiazine]: 5.91; `COc1nc(C2=NOC(C)C(c3cn(C)c4ncc(F)c(F)c34)N2)ccc1-n1cnc(C)c1` (single isomer, unassigned; (+)) [Example 51C, (+)-5-(4,5-difluoro-1-methyl-1H-pyrrolo [2,3-b]pyridin-3-yl)-3-(6-methoxy-5-(4-methyl-1H-imidazol-1-yl)pyridin-2-yl)-6-methyl-5,6-dihydro-4H-1,2,4-oxadiazine]: 6.01. As to `COc1nc(C2=NOC(C)C(c3nn(C)c4ccc(Cl)cc34)N2)ccc1-n1cnc(C)c1` (stereo not drawn) [Example 69A, (+)-(cis)-5-(5-chloro-1-methyl-1H-indazol-3-yl)-3-(6-methoxy-5-(4-methyl-1H-imidazol-1-yl)pyridin-2-yl)-6-methyl-5,6-dihydro-4H-1,2,4-oxadiazine], the pIC50 is 8.23. In the case of `COc1nc(C2=NOC(C3CC3)C(c3cc4ccccc4o3)N2)ccc1-n1cnc(C)c1` (single isomer, unassigned; (+)) [Example 61A, (+)-5-(benzofuran-2-yl)-6-cyclopropyl-3-(6-methoxy-5-(4-methyl-1H-imidazol-1-yl)pyridin-2-yl)-5,6-dihydro-4H-1,2,4-oxadiazine], the negative-log IC50 (pIC50) was 7.77. Take `COc1nc(C2=NOCC(c3c4n(c5ccc(Cl)cc35)CCOC4)N2)ccc1-n1cnc(C)c1` (single isomer, unassigned; (-)) [Example 28B, (−)-8-chloro-10-(3-(6-methoxy-5-(4-methyl-1H-imidazol-1-yl)pyridin-2-yl)-5,6-dihydro-4H-1,2,4-oxadiazin-5-yl)-3,4-dihydro-1H-[1,4]oxazino[4,3-a]indole]: the negative logarithm of the IC50 (pIC50) was 7.21.

Take `COc1nc(C2=NOC(C)C(c3ccc(Cl)c(Cl)c3)N2)ccc1-n1cnc(C)c1` (stereo not drawn) [Example 19A, (−)-cis-5-(3,4-dichlorophenyl)-3-[6-methoxy-5-(4-methyl-1H-imidazol-1-yl)pyridin-2-yl]-6-methyl-5,6-dihydro-4H-1,2,4-oxadiazine]: the pIC50 was 6.04.

Regarding `COc1nc(C2=NOC(C)C(c3c4n(c5ccc(Cl)cc35)CCOC4)N2)ccc1-n1cnc(C)c1` (single isomer, unassigned; (+)) [Example 50D, (+)-8-chloro-10-(3-(6-methoxy-5-(4-methyl-1H-imidazol-1-yl)pyridin-2-yl)-6-methyl-5,6-dihydro-4H-1,2,4-oxadiazin-5-yl)-3,4-dihydro-1H-[1,4] oxazino [4,3-a] indole], the negative logarithm of the IC50 (pIC50) was 8.20. In the case of `COc1nc(C2=NOC(C)C(c3ccc(Cl)cc3)N2)ccc1-n1cnc(C)c1` (stereo not drawn) [Example 24A, (−)-trans-5-(4-chlorophenyl)-3-[6-methoxy-5-(4-methyl-1H-imidazol-1-yl)pyridin-2-yl]-6-methyl-5,6-dihydro-4H-1,2,4-oxadiazine], the pIC50 is 5.92. Turning to `COc1nc(C2=NOC(C)C(c3cn(C)c4cc(F)c(Cl)cc34)N2)ccc1-n1cnc(C)c1` (single isomer, unassigned; (-)) [Example 21C, (−)-5-(5-chloro-6-fluoro-1-methyl-1H-indol-3-yl)-3-(6-methoxy-5-(4-methyl-1H-imidazol-1-yl)pyridin-2-yl)-6-methyl-5,6-dihydro-4H-1,2,4-oxadiazine], the pIC50 was 6.43.
